From patent EP1537858A1, “Drug delivery vehicles and uses thereof” (Vectron Therapeutics AG, priority 2003, dated 2005)

Legend:
[1] = Pharmacokinetics of doxorubicin in blood after i.v. injection (HPLC); type: in vivo; settings: i.v. tail vein, nude mice, blood doxorubicin by HPLC
Description: AVE9-dox and AVE95-dox were injected i.v. into the tail veins of nude mice and blood concentration of doxorubicin was determined by HPLC at varying time points. In this experiment we included unencapsulated doxorubicin as well as doxorubicin encapsulated into pegylated "stealth liposomes" (Doxil®). Compared to AVE9-dox AVE95-dox caused a prolonged serum residence time of doxorubicin (50% value of 11 min for AVE9-dox versus 23 min for AVE95-dox). Unencapsulated dox was rapidly cleared from the circulation (50% value = < 3 min). In contrast, after injection of Doxil® more than 50% of initial doxorubicin was present in the blood after 6 hours (Fig. 4). […] Doxorubicin concentrations in the liver and spleen were increased 3-fold after applying AVE95-dox compared to free doxorubicin.

[2] = system: C26 murine colon carcinoma; experiment: Pharmacodynamics of doxorubicin liposomes in C26 tumor model; type: in vivo, nude mice
Description: For further studies pharmacodynamic experiments in a C26 murine colon carcinoma model were performed. For this purpose tumor cells were injected subcutaneously into nude mice. After tumors had reached a size of approximately 50-100 mm^3 tumor-bearing mice were treated with doxorubicin-loaded liposomes injecting a doxorubicin dose of 4 mg/kg body weight at days 1, 3 and 6.
In a first experiment AVE9-dox and AVE95-dox (see example 10) were compared to unencapsulated doxorubicin. In this experiment we observed reduced tumor growth and a prolonged survival time for animals treated with AVE95-dox compared to animals treated with AVE9-dox or free doxorubicin. […] The difference between free doxorubicin and AVE95-dox at day 12 was statistically significant (p = 0.05). This was also reflected by the mean survival time which was 20 days for AVE95-dox treated animals, 16 days for AVE9-dox treated animals, 14 days for doxorubicin-treated animals, and 12 days for untreated animals.
In a second experiment free doxorubicin was compared to AVE95-dox, when administered either at 4 or at 8 mg/kg body weight to C26-tumor-bearing mice. […] In contrast, tumor growth was further reduced using 8 mg/kg AVE95-dox compared to […] AVE95-dox.
In a third experiment AVE95-dox was compared to Doxil® for the treatment of C26 tumors applying a dose of 4 mg/kg.
In a final set of experiments, AVE95-dox liposomes were compared to a AVE95-based formulation containing varying sphingomyelin concentrations. Firstly, AVE95-dox was compared to the same formulation in which sphingomyelin was substituted by phosphatidylcholine (AVE95-0SM-dox). […] Secondly, AVE95-dox was compared to liposomes consisting of 50 mol% cholesterol, 30 mol% sphingomyelin and 20 mol% phosphatidylcholine. Thus, this formulation contained the same cholesterol concentration but approximately twice as much sphingomyelin as AVE95 liposomes.

[3] = system: C26 murine colon carcinoma; experiment: Pharmacodynamics of mitoxantrone liposomes in C26 tumor model; type: in vivo, nude mice; settings: mitoxantrone dose of 4 mg/kg at days 0, 2 and 5
Description: Efficacy of AVE95-MRX was analyzed in a C26 murine colon carcinoma model. For this purpose tumor cells were injected subcutaneously into nude mice. After tumors had reached a size of approximately 50-100 mm^3, tumor-bearing mice were treated with mitoxantrone-loaded liposomes injecting a mitoxantrone dose of […] or 4 mg/kg body weight at days 0, 2 and 5. Unencapsulated mitoxantrone was included in these experiments. […] However, at this dose tumor growth was further reduced for AVE95-encapsulated mitoxantrone compared to free mitoxantrone (Fig. 9). This improved efficacy compared to free mitoxantrone was also observed at a mitoxantrone concentration of […].

[4] = Pharmacokinetics and organ accumulation of mitoxantrone after i.v. injection (HPLC); type: in vivo; settings: i.v. tail vein, nude mice, blood mitoxantrone by HPLC
Description: AVE95-MXR liposomes were injected i.v. into the tail veins of nude mice and blood concentration of mitoxantrone was determined by HPLC at varying time points. In this experiment we included unencapsulated mitoxantrone. AVE95-MXR caused a prolonged serum residence time of mitoxantrone (50% value = 110 min) compared to unencapsulated mitoxantrone which was rapidly cleared from circulation (50% value = < 3 min) (Fig. 8). […] Mitoxantrone concentrations in the liver and spleen were similar to free mitoxantrone.

Compound	50% value (serum residence time of doxorubicin) [1]	tumor growth compared to untreated control animals ([2]; 4 mg/kg at days 1, 3 and 6, first experiment)	lethality ([2]; at 8 mg/ml (so in the source), C26-tumor-bearing mice)	mean survival time ([2]; doxorubicin 4 mg/kg body weight at days 1, 3 and 6, first experiment)	tumor growth at 8 mg/kg compared to 4 mg/kg ([2]; second experiment, 4 or 8 mg/kg body weight)	inhibition of tumor growth [3]	50% value (serum residence time of mitoxantrone) [4]
COc1cccc2c1C(=O)c1c(O)c3c(c(O)c1C2=O)C[C@@](O)(C(=O)CO)C[C@@H]3O[C@H]1C[C@H](N)[C@H](O)[C@H](C)O1 [doxorubicin]	< 3 min	reduced tumor growth compared to untreated control animals	increased lethality	14 days	No differences in tumor growth	–	–
O=C1c2c(O)ccc(O)c2C(=O)c2c(NCCNCCO)ccc(NCCNCCO)c21 [mitoxantrone, Mitoxantrone]	–	–	–	–	–	strong inhibition of tumor growth	< 3 min
